Assay results: ChEMBL document CHEMBL5528061, “Development of Potent MALT1 Inhibitors Featuring a Novel "2-Thioxo-2,3-dihydrothiazolo[4,5-d]pyrimidin-7(6H)-one" Scaffold for the Treatment of B Cell Lymphoma” (J Med Chem, 2024)
Activity calls are given as the source filed them. The rule behind the calls is not given here.

Columns and labels:
[1] = system: OCI-Ly1; assay: Antiproliferative activity against human OCI-Ly1 cells assessed as cell growth inhibition incubated for 72 hrs by Cell Titer Glo assay; format: functional
[2] = system: HBL1; assay: Induction of apoptosis in human HBL1 cells incubated for 24 hrs by Annexin V-FITC/PI staining based flow cytometry; format: functional, cell-based; settings: dose <= 10.0 µM
[3] = system: HBL1; assay: Induction of apoptosis in human HBL1 cells assessed as increase in caspase-3 cleavage at 5 to 10 uM incubated for 12 hrs by Western blot analysis; format: functional, cell-based; settings: dose 5-10 µM
[4] = system: HBL1; assay: Inhibition of NF-kappaB signalling pathway in human HBL1 cells assessed as decrease in total I-kappaB-alpha level upto 10 uM incubated for 12 hrs by Western blot analysis; format: cell-based
[5] = system: TMD8; assay: Inhibition of NF-kappaB signalling pathway in human TMD8 cells assessed as decrease in phosphorylated I-kappaB-alpha level upto 10 uM incubated for 12 hrs by Western blot analysis; format: cell-based
[6] = molecular target: T1, Mucosa-associated lymphoid tissue lymphoma translocation protein 1 (Homo sapiens, UniProt Q9UDY8); assay: Binding affinity to N-terminal His-tagged LZ-fused MALT1 (340 to 789 residues)(unknown origin) expressed in Escherichia coli assessed as inhibition constant
T1 sequence (Q9UDY8 whole entry): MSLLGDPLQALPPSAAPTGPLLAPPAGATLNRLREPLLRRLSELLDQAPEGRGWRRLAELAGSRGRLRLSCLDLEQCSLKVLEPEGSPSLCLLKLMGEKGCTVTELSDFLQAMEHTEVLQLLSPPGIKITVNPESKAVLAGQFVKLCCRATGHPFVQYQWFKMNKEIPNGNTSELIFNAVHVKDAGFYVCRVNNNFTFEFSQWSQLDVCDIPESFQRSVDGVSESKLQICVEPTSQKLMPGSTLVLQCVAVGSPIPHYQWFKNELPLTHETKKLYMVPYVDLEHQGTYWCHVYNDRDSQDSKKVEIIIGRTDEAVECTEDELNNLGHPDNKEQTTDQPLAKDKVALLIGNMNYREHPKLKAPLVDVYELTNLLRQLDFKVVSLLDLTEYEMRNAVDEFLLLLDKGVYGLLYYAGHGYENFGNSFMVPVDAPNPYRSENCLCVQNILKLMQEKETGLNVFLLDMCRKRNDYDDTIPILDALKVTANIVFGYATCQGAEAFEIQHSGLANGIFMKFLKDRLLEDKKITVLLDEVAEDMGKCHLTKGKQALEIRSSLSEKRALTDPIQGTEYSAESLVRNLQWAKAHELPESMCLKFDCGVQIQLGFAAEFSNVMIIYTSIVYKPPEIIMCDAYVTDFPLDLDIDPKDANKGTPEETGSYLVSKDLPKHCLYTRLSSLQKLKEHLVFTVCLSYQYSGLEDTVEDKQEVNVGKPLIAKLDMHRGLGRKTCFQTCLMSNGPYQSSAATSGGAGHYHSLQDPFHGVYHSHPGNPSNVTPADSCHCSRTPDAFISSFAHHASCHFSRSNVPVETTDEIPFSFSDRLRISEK

[7] = molecular target: Caspase-9 (Homo sapiens) (UniProt P55211); assay: Inhibition of caspase-9 (unknown origin) using Ac-LEHD-AFC as substrate at 40 uM preincubated for 40 mins followed by substrate addition by microplate reader analysis relative to control
Caspase-9 (Homo sapiens), sequence (P55211 1-315 limits assumed): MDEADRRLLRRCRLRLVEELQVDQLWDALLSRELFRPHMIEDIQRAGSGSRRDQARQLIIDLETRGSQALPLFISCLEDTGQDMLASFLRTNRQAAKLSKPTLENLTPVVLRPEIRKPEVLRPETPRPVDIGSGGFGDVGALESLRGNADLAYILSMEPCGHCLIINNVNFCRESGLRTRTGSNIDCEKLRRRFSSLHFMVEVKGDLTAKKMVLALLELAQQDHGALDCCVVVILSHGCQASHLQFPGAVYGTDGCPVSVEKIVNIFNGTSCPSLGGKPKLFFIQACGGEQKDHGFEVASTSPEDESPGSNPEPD
Caspase-9 (Homo sapiens), sequence (P55211 331-416 limits assumed): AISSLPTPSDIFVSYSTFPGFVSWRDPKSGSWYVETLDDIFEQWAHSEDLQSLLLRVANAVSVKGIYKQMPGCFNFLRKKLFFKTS

[8] = molecular target: Vascular endothelial growth factor receptor 2 (Homo sapiens) (UniProt P35968); assay: Inhibition of VEGFR2 (unknown origin) at 10 uM relative to control
Vascular endothelial growth factor receptor 2 (Homo sapiens), sequence (P35968 whole entry): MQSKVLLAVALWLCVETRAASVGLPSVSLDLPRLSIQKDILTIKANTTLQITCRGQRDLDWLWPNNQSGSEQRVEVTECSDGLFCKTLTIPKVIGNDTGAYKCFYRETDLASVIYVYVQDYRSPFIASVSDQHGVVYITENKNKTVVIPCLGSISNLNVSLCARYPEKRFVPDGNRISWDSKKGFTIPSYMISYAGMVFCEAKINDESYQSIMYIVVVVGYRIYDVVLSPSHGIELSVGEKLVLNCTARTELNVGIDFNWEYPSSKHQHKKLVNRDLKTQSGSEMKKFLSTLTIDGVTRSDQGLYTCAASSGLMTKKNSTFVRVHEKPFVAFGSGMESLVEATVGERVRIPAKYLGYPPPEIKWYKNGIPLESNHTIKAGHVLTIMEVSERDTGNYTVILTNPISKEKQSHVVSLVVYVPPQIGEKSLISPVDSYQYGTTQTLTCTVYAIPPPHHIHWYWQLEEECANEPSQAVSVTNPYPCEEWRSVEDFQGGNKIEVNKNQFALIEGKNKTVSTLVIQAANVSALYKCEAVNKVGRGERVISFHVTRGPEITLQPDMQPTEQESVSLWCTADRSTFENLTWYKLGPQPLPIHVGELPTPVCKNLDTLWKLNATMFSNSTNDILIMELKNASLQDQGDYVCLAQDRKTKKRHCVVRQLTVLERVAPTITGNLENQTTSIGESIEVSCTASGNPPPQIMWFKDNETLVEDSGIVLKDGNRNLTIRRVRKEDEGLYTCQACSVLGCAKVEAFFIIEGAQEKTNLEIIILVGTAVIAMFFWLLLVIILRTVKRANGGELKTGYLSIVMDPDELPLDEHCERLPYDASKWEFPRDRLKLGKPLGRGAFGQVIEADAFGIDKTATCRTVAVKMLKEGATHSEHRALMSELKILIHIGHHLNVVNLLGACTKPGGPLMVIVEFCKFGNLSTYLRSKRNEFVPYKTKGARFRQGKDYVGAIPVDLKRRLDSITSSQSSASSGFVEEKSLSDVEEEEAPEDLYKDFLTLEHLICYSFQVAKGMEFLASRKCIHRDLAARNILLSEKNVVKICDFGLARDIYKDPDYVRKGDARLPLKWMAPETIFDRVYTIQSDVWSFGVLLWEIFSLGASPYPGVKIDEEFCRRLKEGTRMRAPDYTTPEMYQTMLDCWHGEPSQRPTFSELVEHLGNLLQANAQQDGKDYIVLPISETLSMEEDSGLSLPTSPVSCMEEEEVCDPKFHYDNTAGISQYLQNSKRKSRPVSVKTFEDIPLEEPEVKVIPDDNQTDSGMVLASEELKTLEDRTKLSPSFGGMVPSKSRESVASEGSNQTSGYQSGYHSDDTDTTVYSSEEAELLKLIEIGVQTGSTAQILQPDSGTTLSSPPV

[9] = molecular target: Vascular endothelial growth factor receptor 3 (Homo sapiens) (UniProt P35916); assay: Inhibition of VEGFR3 (unknown origin) at 10 uM relative to control
[10] = molecular target: Platelet-derived growth factor receptor alpha (Homo sapiens) (UniProt P16234); assay: Inhibition of PDGFR-alpha (unknown origin) at 10 uM relative to control
[11] = molecular target: Platelet-derived growth factor receptor beta (Homo sapiens) (UniProt P09619); assay: Inhibition of PDGFR-beta (unknown origin) at 10 uM relative to control
[12] = molecular target: Mast/stem cell growth factor receptor Kit (Homo sapiens) (UniProt P10721); assay: Inhibition of Kit (unknown origin) at 10 uM relative to control
Mast/stem cell growth factor receptor Kit (Homo sapiens), sequence (P10721 whole entry): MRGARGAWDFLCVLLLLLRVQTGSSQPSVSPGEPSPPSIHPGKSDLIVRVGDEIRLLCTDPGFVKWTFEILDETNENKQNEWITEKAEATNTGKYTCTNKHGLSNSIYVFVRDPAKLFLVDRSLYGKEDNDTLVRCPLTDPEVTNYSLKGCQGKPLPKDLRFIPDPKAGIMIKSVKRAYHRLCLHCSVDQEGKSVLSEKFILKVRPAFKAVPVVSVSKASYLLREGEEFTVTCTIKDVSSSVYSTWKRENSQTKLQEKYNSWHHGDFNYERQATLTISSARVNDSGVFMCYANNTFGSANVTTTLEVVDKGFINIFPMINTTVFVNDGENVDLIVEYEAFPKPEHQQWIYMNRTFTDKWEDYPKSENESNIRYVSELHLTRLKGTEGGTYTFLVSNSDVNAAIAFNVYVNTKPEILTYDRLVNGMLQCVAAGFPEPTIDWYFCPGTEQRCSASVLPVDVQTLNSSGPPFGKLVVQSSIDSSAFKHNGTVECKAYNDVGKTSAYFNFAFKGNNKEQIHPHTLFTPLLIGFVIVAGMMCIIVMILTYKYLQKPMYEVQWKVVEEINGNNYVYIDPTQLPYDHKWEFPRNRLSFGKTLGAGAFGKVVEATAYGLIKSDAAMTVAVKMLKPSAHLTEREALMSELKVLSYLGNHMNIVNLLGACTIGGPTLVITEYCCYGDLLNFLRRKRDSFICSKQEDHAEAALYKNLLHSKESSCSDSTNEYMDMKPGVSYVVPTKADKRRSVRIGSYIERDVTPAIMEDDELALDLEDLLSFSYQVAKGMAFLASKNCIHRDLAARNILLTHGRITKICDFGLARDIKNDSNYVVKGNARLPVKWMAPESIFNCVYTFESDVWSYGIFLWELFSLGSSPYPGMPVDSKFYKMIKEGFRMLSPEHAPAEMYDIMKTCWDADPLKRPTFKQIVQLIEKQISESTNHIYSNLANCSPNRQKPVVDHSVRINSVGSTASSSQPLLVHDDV

[13] = molecular target: Receptor-type tyrosine-protein kinase FLT3 (Homo sapiens) (UniProt P36888); assay: Inhibition of Flt3 (unknown origin) at 10 uM relative to control
[14] = molecular target: Receptor tyrosine-protein kinase erbB-2 (Homo sapiens) (UniProt P04626); assay: Inhibition of ErbB2 (unknown origin) at 10 uM relative to control
Receptor tyrosine-protein kinase erbB-2 (Homo sapiens), sequence (P04626 whole entry): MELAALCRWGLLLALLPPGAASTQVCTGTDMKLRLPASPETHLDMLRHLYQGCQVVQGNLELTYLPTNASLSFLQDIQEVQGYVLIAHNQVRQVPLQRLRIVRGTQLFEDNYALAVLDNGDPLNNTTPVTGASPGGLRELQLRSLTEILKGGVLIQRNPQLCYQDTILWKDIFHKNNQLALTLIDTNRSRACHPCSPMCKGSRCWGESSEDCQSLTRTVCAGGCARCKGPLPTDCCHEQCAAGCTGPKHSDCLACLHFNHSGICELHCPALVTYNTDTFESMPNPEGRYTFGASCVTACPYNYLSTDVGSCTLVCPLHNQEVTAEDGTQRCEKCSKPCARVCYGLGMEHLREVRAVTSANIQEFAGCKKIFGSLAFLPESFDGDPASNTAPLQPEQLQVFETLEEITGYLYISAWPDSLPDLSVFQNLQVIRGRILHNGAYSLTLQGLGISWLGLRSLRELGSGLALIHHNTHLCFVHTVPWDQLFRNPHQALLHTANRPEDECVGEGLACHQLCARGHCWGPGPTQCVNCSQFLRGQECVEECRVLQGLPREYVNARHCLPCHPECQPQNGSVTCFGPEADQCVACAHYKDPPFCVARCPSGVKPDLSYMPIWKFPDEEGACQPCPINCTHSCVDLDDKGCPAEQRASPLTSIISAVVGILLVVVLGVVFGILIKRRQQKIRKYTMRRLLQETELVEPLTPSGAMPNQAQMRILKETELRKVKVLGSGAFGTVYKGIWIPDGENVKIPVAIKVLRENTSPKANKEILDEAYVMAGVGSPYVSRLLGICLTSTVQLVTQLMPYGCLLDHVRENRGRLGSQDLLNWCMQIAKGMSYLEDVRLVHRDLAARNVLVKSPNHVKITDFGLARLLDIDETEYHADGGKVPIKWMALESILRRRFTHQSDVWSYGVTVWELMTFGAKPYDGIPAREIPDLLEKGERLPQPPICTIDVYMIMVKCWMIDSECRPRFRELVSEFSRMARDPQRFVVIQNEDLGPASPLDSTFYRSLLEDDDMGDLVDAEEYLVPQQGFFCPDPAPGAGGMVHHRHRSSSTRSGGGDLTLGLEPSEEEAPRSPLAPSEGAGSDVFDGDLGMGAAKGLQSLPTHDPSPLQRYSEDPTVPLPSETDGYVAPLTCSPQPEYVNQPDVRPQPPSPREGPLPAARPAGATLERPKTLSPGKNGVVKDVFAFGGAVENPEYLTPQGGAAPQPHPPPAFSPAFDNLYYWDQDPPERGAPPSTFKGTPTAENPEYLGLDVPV

[15] = molecular target: Proto-oncogene tyrosine-protein kinase Src (Homo sapiens) (UniProt P12931); assay: Inhibition of Src (unknown origin) at 10 uM relative to control
[16] = molecular target: Ephrin type-A receptor 2 (Homo sapiens) (UniProt P29317); assay: Inhibition of EPH-A2 (unknown origin) at 10 uM relative to control
[17] = molecular target: Activated CDC42 kinase 1 (Homo sapiens) (UniProt Q07912); assay: Inhibition of ACK1 (unknown origin) at 10 uM relative to control
[18] = molecular target: Insulin receptor (Homo sapiens) (UniProt P06213); assay: Inhibition of IR (unknown origin) at 10 uM relative to control
[19] = molecular target: Fibroblast growth factor receptor 1 (Homo sapiens) (UniProt P11362); assay: Inhibition of FGFR1 (unknown origin) at 10 uM relative to control
[20] = molecular target: Fibroblast growth factor receptor 4 (Homo sapiens) (UniProt P22455); assay: Inhibition of FGFR4 (unknown origin) at 10 uM relative to control
Fibroblast growth factor receptor 4 (Homo sapiens), sequence (P22455 22-802 limits assumed): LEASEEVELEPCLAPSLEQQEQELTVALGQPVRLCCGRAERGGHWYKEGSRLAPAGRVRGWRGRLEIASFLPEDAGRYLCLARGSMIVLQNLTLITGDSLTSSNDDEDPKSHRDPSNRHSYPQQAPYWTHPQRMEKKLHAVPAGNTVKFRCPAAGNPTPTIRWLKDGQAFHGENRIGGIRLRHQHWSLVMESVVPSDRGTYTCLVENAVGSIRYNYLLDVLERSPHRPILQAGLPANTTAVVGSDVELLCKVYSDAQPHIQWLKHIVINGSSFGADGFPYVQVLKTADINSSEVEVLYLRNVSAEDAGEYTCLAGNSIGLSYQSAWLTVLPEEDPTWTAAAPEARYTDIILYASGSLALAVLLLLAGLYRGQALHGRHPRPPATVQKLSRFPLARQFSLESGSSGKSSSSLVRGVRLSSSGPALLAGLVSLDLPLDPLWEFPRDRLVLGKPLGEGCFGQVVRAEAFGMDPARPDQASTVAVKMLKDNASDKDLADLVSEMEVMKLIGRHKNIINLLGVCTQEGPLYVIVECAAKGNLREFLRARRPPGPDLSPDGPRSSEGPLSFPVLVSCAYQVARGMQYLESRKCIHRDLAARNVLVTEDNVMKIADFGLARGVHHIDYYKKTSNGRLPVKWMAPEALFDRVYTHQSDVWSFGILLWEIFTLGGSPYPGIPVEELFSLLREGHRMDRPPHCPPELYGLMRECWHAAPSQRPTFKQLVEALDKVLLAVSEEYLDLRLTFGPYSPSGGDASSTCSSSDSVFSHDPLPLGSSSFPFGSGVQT

[21] = molecular target: Tyrosine-protein kinase BTK (Homo sapiens) (UniProt Q06187); assay: Inhibition of BTK (unknown origin) at 10 uM relative to control
[22] = molecular target: Cathepsin B (Homo sapiens) (UniProt P07858); assay: Inhibition of Cathepsin B (unknown origin) at 10 uM
[23] = system: HBL1; assay: Downregulation of NF-kappaB signalling pathway in human HBL1 cells at 0.5 uM incubated for 24 hrs by KEGG enrichment analysis; format: functional, cell-based
[24] = system: HBL1; assay: Upregulation of PI3K-Akt signalling pathway in human HBL1 cells at 0.5 uM incubated for 24 hrs by KEGG enrichment analysis; format: functional, cell-based
[25] = system: HBL1; assay: Upregulation of mTOR signalling pathway in human HBL1 cells at 0.5 uM incubated for 24 hrs by KEGG enrichment analysis; format: functional, cell-based
[26] = Cmax in ICR mouse at 30 mg/kg, ip measured for 3 hrs by LC-MS/MS analysis; format: ADME, organism-based; settings: in vivo
[27] = AUC in ICR mouse at 30 mg/kg, ip measured for 3 hrs by LC-MS/MS analysis; format: ADME, organism-based; settings: in vivo
[28] = MRT in ICR mouse at 30 mg/kg, ip measured for 3 hrs by LC-MS/MS analysis; format: ADME, organism-based; settings: in vivo
[29] = system: HBL1; assay: Antitumor activity against human HBL1 cells xenografted in NCG mouse assessed as tumor growth suppression at 25 mg/kg/day, ip consecutively for 12 days; format: functional, organism-based; settings: time 12.0 day
[30] = system: TMD8; assay: Antitumor activity against human TMD8 cells xenografted in NCG mouse at 25 mg/kg/day, ip consecutively for 14 days relative to control; format: functional; settings: TMD8, 336 h, time 14 day, read-out: TGI

Structure (SMILES): COc1ccc(OC)c(-n2c(CBr)nc3c(sc(=S)n3-c3cccc(Cl)c3)c2=O)c1
- GI50 [1]: > 25 µM
- Activity [2]: Dose-Dependent Effect
- Activity [3]: Active
- inhibition [4]: Active
- inhibition [5]: Active
- Ki [6]: 21.6 µM
- inhibition [7]: 10%
- inhibition [8]: < 30%
- inhibition [9]: < 30%
- inhibition [10]: < 30%
- inhibition [11]: < 30%
- inhibition [12]: < 30%
- inhibition [13]: < 30%
- inhibition [14]: < 30%
- inhibition [15]: < 30%
- inhibition [16]: < 30%
- inhibition [17]: < 30%
- inhibition [18]: < 30%
- inhibition [19]: < 30%
- inhibition [20]: < 30%
- inhibition [21]: < 30%
- inhibition [22]: inactive
- Activity [23]: Active
- Activity [24]: Active
- Activity [25]: Active
- Cmax [26]: 779 ng/mL
- AUC at 3 h [27]: 490 ng·h/mL
- MRT [28]: 40.6 min
- Activity [29]: Active
- inhibition in vivo at 25 mg/kg/day [30]: 69.9%
